Assay results as given in patent publication US20110166206A1, “UBIQUILIN REGULATION OF PRESENILIN ENDOPROTEOLYSIS, AND SUPPRESSION OF POLYGLUTAMINE-INDUCED TOXICITY IN CELLS” (UNIVERSITY OF MARYLAND BIOTECHNOLOGY INSTITUTE, priority 2005, published 2011).
Square brackets hold non-standard residues; d marks the D form. Peptide text beside a SMILES is read from it. * marks the point of attachment. Nle = CCCC[C@H](N)C(=O)O; Cbz = O=C(OCc1ccccc1)*

Assays:
PS1 NTF = experiment: Proteasome inhibitor treatment of PS1 inducible cells, PS1 NTF immunoblot; format: cell-based; conditions: 16 h treatment
Description: (§1) (A) PS1 and PS2 inducible cells were treated with various classes of proteasome inhibitors for 16 hours. Afterwards, cell lysates were collected, separated by SDS-PAGE, and analyzed by immunoblotting. PS1 NTF levels and PS2 NTF levels were reduced by treatment with all of the different inhibitors albeit to varying extents.
(§2) PS2 inducible cells were treated for 16 h with 10 uM clasto-lactacystin β-lactone, N-Acetyl-Leu-Leu-Nle-CHO (ALLN), 50 uM epoxomicin, 40 uM MG132, and […]. Afterwards, lysates were collected and the fragment levels were analyzed by SDS-PAGE and immunoblotting.
(§3) First, to rule out that MG132 inhibits another factor involved in PS cleavage, PS1 and PS2 inducible cells were treated with a series of different known proteasome inhibitors including clasto-lactacystin p-lactone, ALLN, epoxomicin, MG132, and MG262. […] While each inhibitor had varying effects on the extent of reduction, PS1 NTF levels were reduced by an average of 1.3-fold and PS2 NTF levels were reduced by an average of 1.4-fold. At first glance the fold reduction appears modest; however, considering that degradation of the PS fragments by the proteasome has also been blocked and that fragment levels are tightly regulated, the reduction in PS fragment levels appears significant. Furthermore, it was considered unlikely that all […] proteasome inhibitors used here caused nonspecific inhibition of an unknown factor involved in PS endoproteolysis. Instead, it was considered that the most straightforward interpretation of the results is that, in accord with the mode of action the drugs, they all inhibit the proteasome, which is involved in PS endoproteolysis.

PS2 NTF [1] = experiment: Proteasome inhibitor treatment of PS2 inducible cells, PS2 NTF immunoblot; format: cell-based, human; conditions: 16 h treatment
Description: as §1, §2, §3

PS2 NTF [2] = experiment: Proteasome inhibitor wash-out time course with CHX in PS2 stable cells; format: cell-based, human
Description: (B) PS2 inducible cells were treated continuously with MG132 or MG262 or the drugs were washed from half the cultures after 7 hours of incubation with the drugs. Immediately after washing, CHX was added to all of the cultures to inhibit protein synthesis. Lysates were collected at two hour time points thereafter and the PS fragment levels were analyzed by SDS-PAGE and subsequent immunoblotting. […] Please note that because PS2 expression was not been induced with PonA, the FL protein is not detectable. The filter was reprobed with anti-p27 antibody to monitor recovery of proteasome activity. p27 has a half-life of two hours; therefore once proteasome inhibition is relieved the level of p27 begins to decline (third panel, right), whereas under constant proteasome inhibition its levels remain steady (third panel, left), serving as an important control.
(C) Densitometric analysis was used to quantify the extent of increase in PS2 NTF levels in conditions of constant proteasome inhibition and upon removal of proteasome inhibition. At time=0 the NTF levels in the washed sample is equal to that of MG132 treated sample; however, NTF levels quickly begin to […], whereas in the MG132 treated samples PS2 NTF levels stay steady.
PS2 inducible cells were grown in two sets on […]. Both sets were treated with MG132 or MG262 (also called Z-Leu-Leu-Leu-B(OH)2, Boston Biocem). 7 h later, the drugs were washed off one set by rinsing twice with warm 1×PBS and replacing with fresh DMEM supplemented with 10% FBS, allowing the proteasomes to recover. Also at that point, cyclohexamide (final cont. […]) was added to all dishes. Lysates were collected at two hour time points and the fragment levels were analyzed by SDS-PAGE and subsequent immunoblotting.
To directly address whether the proteasome is responsible for endoproteolysis of PS2, another time course experiment utilizing proteasome inhibitors was devised. […]

PS1 and PS2 NTF and CTF = experiment: MG132 treatment of UBQLN-transfected PS1 and PS2 stable cell lines, fragment immunoblot; format: cell-based; conditions: proteasome inhibitor treatment
Description: FIG. 3. […] (A) PS1 cells lines that were either not induced (lanes 1 and 3) or induced with PonA (lanes 2 and 4) and either left untransfected (lanes 1 and 2) or transfected with UBQLN1 expression plasmids (lanes 3 and 4) were treated for 7 h with MG132 after which protein lysates were collected and analyzed by immunoblotting. […] For clarification, if UBQLN did increase the turnover rate then by blocking degradation, turnover would be stopped and PS fragment levels would be similar, or increase, relative to that of untransfected cells. […] Densitometric analysis was used to quantify the extent of reduction. Each experiment was repeated more than three times and similar trends were observed.
(B) Same experiment and results as described in (A) except that PS2 inducible cell lines were used to examine PS2 NTF and CTF levels. […] UBQLN exerts greater effects on PS2 probably because it interacts more strongly with PS2, see [43].
HeLa and HEK293 cells were grown in DMEM supplemented with 10% FBS. PS1 and S2 inducible cell lines were generated by transfection of the pERV-expressing HEK293 cell line (Stratgene, IaIolla, Calif.) with FL human PS2 cDNA under the control of ponasteroneA (PonA)-inducible cassette in plasmid pEGSH (Stratagene). Stable integration of the pEGSH plasmid was achieved by selection for hygromycin resistance. […]

endogenous PS1 NTF = experiment: UBQLN overexpression in wild-type HEK293 cells, endogenous PS1 NTF immunoblot; format: cell-based; conditions: normal HEK293 cells
Description: (C) Endogenous PS fragment levels were analyzed in HEK293 cells that were transfected with increasing amounts of UBQLN1 or UBQLN2 expression plasmids. Equivalent amounts of protein lysates were separated by 10% SDS-PAGE and immunoblotted with anti-PS1 NTF antibody. The filter was then reprobed with anti-ubiquilin antibody to ensure overexpression of UBQLN and with an anti-actin antibody to ensure equal protein loading. Overexpression of UBQLN decreases PS1 NTF levels and the extent of reduction was quantified again by densitometric analysis. Graph is quantification of untransfected and […] UBQLN cDNA plasmid transfected lanes.
Preparation of protein lysates, SDS-PAGE and immunoblotting of proteins were described previously. Primary antibodies used were rabbit anti-PS2 loop and rabbit anti-PS2 NH,-terminus, both raised to GST-PS2 fusion proteins; rabbit anti-ubiquilin [43] which reacts with UBQLN1 and UBQLN2 polypeptides; rat anti-PS1 NH2,-terminus (Chemicon International, Temecula, Calif.); rabbit anti-PS1 loop raised to GST-PS1 fusion proteins; goat anti-p27 and goat anti-actin (Santa Cruz Biotechnology, Santa Cruz, Calif.); mouse monoclonal anti-tubulin (Sigma-Aldrich, St. Louis, Mo.); rabbit anti-nicastrin (Abeam, Cambridge, Mass.), rabbit anti-Pen-2 (Zymed, San Francisco, Calif.); and rabbit anti-Aph-la (Covance, Berkeley, Calif.). […]

Row | Compound | PS1 NTF levels (PS1 NTF) | PS2 NTF levels (PS2 NTF [1]) | rise in PS2 NTF levels after inhibitor washed out (PS2 NTF [2]; 12 hours after wash-out, CHX added) [fold] | PS2 NTF levels under continuous inhibitor (PS2 NTF [2]; inhibitor present for the continuous duration) | PS fragment levels, MG132 treated vs MG132 untreated cells (PS1 and PS2 NTF and CTF) | PS2 fragments after removal of inhibitor (PS2 NTF [2]; proteasomes recover activity) | reduction of endogenous PS1 NTF levels (endogenous PS1 NTF)
1 | CCCC[C@@H](C=O)NC(=O)[C@H](CC(C)C)NC(=O)[C@H](CC(C)C)NC(C)=O [ALLN, N-Acetyl-Leu-Leu-Nle-CHO] (Ac-Leu-Leu-[Nle]-aldehyde) | reduced | reduced | – | – | – | – | –
2 | CC(C)C[C@@H](C=O)NC(=O)[C@H](CC(C)C)NC(=O)[C@H](CC(C)C)NC(=O)OCc1ccccc1 [MG132] (Cbz-Leu-Leu-Leu-aldehyde) | reduced | reduced | 1.8 | remained relatively constant | reduced PS fragment levels | – | –
3 | CC(C)C[C@H](NC(=O)[C@H](CC(C)C)NC(=O)[C@H](CC(C)C)NC(=O)OCc1ccccc1)B(O)O [MG262, Z-Leu-Leu-Leu-B(OH)2] | reduced | reduced | – | – | – | notable increase in PS2 fragments | –
4 | CC(C)[C@H](O)[C@@]12NC(=O)[C@H](C)[C@@H]1OC2=O [clasto-lactacystin p-lactone, clasto-lactacystin β-lactone] | reduced | reduced | – | – | – | – | –
5 | CC[C@H](C)[C@H](NC(=O)[C@H]([C@@H](C)CC)N(C)C(C)=O)C(=O)N[C@H](C(=O)N[C@@H](CC(C)C)C(=O)[C@@]1(C)CO1)[C@@H](C)O [epoxomicin] | reduced | reduced | – | – | – | – | –
6 | UBQLN2: ubiquilin-2, 72% identical to UBQLN1, overexpressed from an expression plasmid | – | – | – | – | – | – | approximately 1.7 fold
